In patent US20260102407A1, “TREATMENT METHODS” (priority 2020, published 2026):

Legend:
[1] = system: THP-1 transendothelial migration; assay: Monocyte-transendothelial migration assay toward MCP-1; assay type: cell-based, human; conditions: HMEC; 20 ng/ml IL-1β; 24 h
Procedure: Monocyte-transendothelial migration assay. Millicell 8 μm polycarbonated culture plate inserts (Millipore) were coated with 0.1% porcine gelatin type A (Sigma) and then placed into 24-well plates. HMEC (5×10^4 cells/well) were seeded onto the insert and allowed to adhere overnight. Cells were then serum deprived for 24 h and treated with various compound treatments for 1 h. IL-1β (20 ng/ml) was added to stimulate the cells for 4 h and 500 μl of serum-free medium was added to the bottom of the 24-well plate along with the compound. THP-1 (5×10^5 cells in 100 μl) were added into the insert and 100 ng/ml MCP-1 (Sigma) was added to the lower well. After 24 h, the number of cells that had migrated though the endothelial layer was assessed by counting 100 μl of the suspension in the lower chamber using a Coulter cell counter (Beckman Coulter).

[2] = system: FosB; assay: Immunohistochemical staining of rat retina, FosB; assay type: in vivo; conditions: lasered rat retinas
Description: Rat choroidal laser injury model. Male Brown Norway pigmented rats (8-14 week-old) were anesthetized by an intramuscular injection of Rompun® (xylazine)/Imalgene® (ketamine). Pupils were dilated by instillation of one drop of 0.5% tropicamide before laser burn. Six burns were created in both eyes on Day 0 by applying 170 mW of 532 nm laser light (Viridis laser, Quantel, France) on 75 μm spots around the optic nerve, between the main retinal vessel branches, for 0.1s, through the slit lamp and contact lens. Production of a bubble at the time of laser application confirmed the rupture of Bruch's membrane. […] After anaesthesia, 10% sodium fluorescein (250 μl/100 g body weight) was injected subcutaneously, and ocular fluorescence was recorded 10 min after dye injection. Fluorescein leakage was evaluated on Days 14 and 21 in the angiograms by two examiners masked to the study groups and graded for fluorescein intensity as follows: score 0: no leakage; 1: slightly stained; 2: moderately stained; 3: strongly stained.
Immunohistochemical staining of rat retina. […] IOD of positive staining (red chromogen) was assessed for CD31, VEGF-A165, pERK, FosB and VCAM-1 using Image-Pro Plus software (Cybernetics, Bethesda, MD). IOD in IPL and INL was quantified for CD31; OPL to OS for VEGF-A165; INL to ONL for pERK; GCL to OS for FosB; OLM for VCAM-1, using Image-Pro Plus. […]

[3] = system: p-p38; assay: Western blot, IL-1β-inducible p-p38 in HMEC-1; assay type: cell-based, human; conditions: 1-30 μM
Procedure: Western blot analysis with extracts of cells treated with IL-13. HMEC-1 (80-90% confluency) were arrested in serum-free MCDB131 medium (Invitrogen, MD) without any growth factor for 48 h. Cells were treated with 30 μM compound in serum-free medium for 4 h, and incubated with 20 ng/ml IL-1β (Sigma, cat. SRE3083) in serum-free medium with the same concentration of compound for up to 4 h, unless otherwise indicated. Total protein was harvested as previously described using RIPA buffer with protease inhibitors. Proteins were resolved on 4-20% (w/v) SDS-polyacrylamide gradient gels and transferred to Immobilon-P PVDF membranes. […] Chemiluminescence was detected using the Western Lightning Chemiluminescence system and ImageQuant™ LAS 4000 biomolecular imager. Band intensity in images generated with the LAS 4000 using the same settings were quantified by NIH ImageJ.

CCOC(=O)Nc1ccc2c(c1)C(=O)N(CC)c1ccccc1O2 [BT2, (10-ethyl-11-oxo-10,11-dihydro-dibenzo[b,f][1,4]oxazepin-2-yl)-carbamic acid ethyl ester]
transendothelial migration of THP-1 monocytes toward MCP-1 [1]: inhibits the transendothelial migration | retinal FosB immunostaining [2]: inhibited retinal FosB immunostaining | IL-1β-inducible p-p38 [3]: no effect
